Test [1] addresses T1, LACV EndoN (Bunyavirus La Crosse, UniProt A5HC98). Type of test: binding, La Crosse virus. Conditions: for Stability ΔT m: 50 µM compound, 5 µM protein, baseline LACV EndoN in the presence of manganese (T m ≃ 56°C); for greater stabilization compared with DPBA: difference in ΔT m versus DPBA, with 0.5 mM MnCl2. The protocol:
The influence of compound binding on the stability of LACV EndoN was measured by a Thermofluor assay using a CFX Connect Bio-Rad real-time PCR machine at a protein concentration of 5 µM in a buffer consisting of 20 mM Tris–HCl pH 7.6, 150 mM NaCl, 2.5 mM β-mercaptoethanol supplemented with 0.5 mM freshly prepared MnCl2. The compound concentration was fixed at 50 µM (5% DMSO). In 96-well thin-walled PCR plates, 1 µl inhibitor was added to 17 µl buffer followed by the addition of 2 µl protein. Finally, 2 µl of the fluorescent dye SYPRO Orange (Thermo Fisher, catalog No. 4461146) was added (a fivefold final concentration). Controls were performed using the same protocol without MnCl2. The melting-temperature (T m) values given are the average and standard deviation of three independent experiments.
DSF is used to assess protein stabilization or destabilization upon the addition of cofactors by measuring the thermal stability (the thermal melting transition T m) arising from interaction with a fluorescent dye (SYPRO Orange) during denaturation.
(c) Structures of the studied ligands.
Target sequence in this assay (A5HC98 1-183): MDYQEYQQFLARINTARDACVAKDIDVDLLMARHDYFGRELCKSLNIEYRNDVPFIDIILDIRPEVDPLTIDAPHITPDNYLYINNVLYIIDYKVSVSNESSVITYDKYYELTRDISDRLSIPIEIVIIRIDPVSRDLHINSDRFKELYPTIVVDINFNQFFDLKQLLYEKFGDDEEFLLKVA

Test [2] addresses T1, LACV EndoN. The experiment in a line: In vitro endonuclease FRET assay. Type of test: biochemical, La Crosse virus. Conditions: for fold greater inhibition efficiency than DPBA: ratio of IC50 values versus DPBA. On the procedure: An in vitro endonuclease assay was used to investigate the inhibition of LACV EndoN by DPBA, L-742,001 and baloxavir. The reaction was conducted using a 20 µl sample in 20 mM Tris pH 7.6, 150 mM NaCl, 0.01% Tween 20, 1 mM DTT and was supplemented with 1 mM freshly prepared MnCl2. The 19-mer RNA at a concentration of 50 nM and a gradient concentration of inhibitor (from 0.004 to 100 µM) were pre-incubated at 25°C in the reaction buffer. The reaction was started upon the addition of LACV EndoN (pre-mixed with 1 mM MnCl2 and pre-incubated at 25°C for 5 min) at a final concentration of 0.25 µM. Fluorescence upon RNA cleavage was followed in a PHERAstar FSX microplate reader (BMG Labtech, Germany) at 25°C using wavelengths of 465 nm for excitation and 520 nm for emission.
The inhibition efficacies of the three ligands were tested against LACV EndoN in an endonuclease FRET assay and the results are summarized in Table 2 ▸. This was performed following the cleavage of a 19-mer RNA labelled with a 5′ fluorescent probe (6-FAM) and a 3′ quencher (BHQ1) in the presence of a range of ligand concentrations upon the addition of 0.25 µM LACV EndoN. In this FRET inhibition assay, the order in which the three partners of the catalytic complex (protein, ions and substrate RNA) are introduced is decisive. The reaction is triggered by adding the protein pre-incubated with ions to a mixture containing substrate RNA, ions and ligand. The design of the assay may constitute a limitation to the complete assessment of the binding efficiency of baloxavir to the enzyme, given the competition between substrate RNA, free ions and ligand. As described for FLUV, baloxavir is a tight-binding inhibitor with slow dissociation and acts by preventing binding of the RNA substrate (Omoto et al., 2018[▸]; Todd et al., 2021[▸]). In the context of the current biochemical assay, the interplay between the RNA substrate and the ligand presents an unfavourable scenario for binding of the metal-chelating ligand. […] This unexpected uniformity of the inhibition values underscores the remarkable potency of these compounds in the face of a challenging biochemical landscape.
Target sequence in this assay (A5HC98 1-185): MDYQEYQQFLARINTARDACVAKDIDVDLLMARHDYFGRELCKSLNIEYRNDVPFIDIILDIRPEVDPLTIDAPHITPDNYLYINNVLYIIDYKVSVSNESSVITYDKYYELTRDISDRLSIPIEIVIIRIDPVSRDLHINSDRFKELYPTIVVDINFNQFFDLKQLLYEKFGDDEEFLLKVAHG

Test [3] addresses T1, LACV EndoN. The test is described as follows: Microscale thermophoresis (MST) binding affinity. Conditions: for Kd: Affinity K d, labelled protein 50 or 100 nM, 0.5 mM MnCl2, 5% DMSO, n = 3; for fold better affinity than DPBA: ratio of K d values versus DPBA. On the set-up: species or system La Crosse virus. For orientation: Microscale thermophoresis detects binding through changes in fluorescence in a small temperature gradient.
Target sequence in this assay (A5HC98 1-185): as above

For another test, the target named is FLUV PA-Nter. On the set-up: method as in DuBois et al., 2012. Conditions: ref DuBois et al., 2012; cited from earlier work.
The next test has as its target LCMV EndoN. Conditions: ref Saez-Ayala et al., 2018, 2019; cited from earlier work.

Several values for one entry are separate records, joined by “and”; a condition that tells them apart may be missing. Equal values may be shown once. Read-outs that look alike come from different tables or passages of the source.

On to `[Cl][Mn][Cl]` [MnCl2], for which the “T m increase upon addition of metal ions” value at LACV EndoN [1] (0.5 mM MnCl2, versus LACV EndoN without ions (T m of 49°C)) is roughly 7 °C.

Usually IC50 stands for the concentration at which inhibition is half-maximal. Read a high IC50 as lower potency. As a reminder, the Kd is the equilibrium constant for the complex coming apart. Consider `O=C1c2c(O)c(=O)ccn2N([C@@H]2c3ccccc3SCc3c2ccc(F)c3F)[C@@H]2COCCN12` [Baloxavir, (R)-12-((S)-7,8-Difluoro-6,11-dihydrodibenzo[b,e]thiepin-11-yl)-7-hydroxy-3,4,12,12a-tetrahydro-1H-[1,4]oxazino[3,4-c]pyrido[2,1-f][1,2,4]triazine-6,8-dione], for which, at LACV EndoN [1] (0.5 mM MnCl2), the “Stability ΔT m” value is “+12.72 ± 0.18 °C”. On LACV EndoN [1] (0.5 mM MnCl2, listed as baloxavir), the “Stability ΔT m” value was roughly 13 °C. The “greater stabilization compared with DPBA” value at LACV EndoN [1] is “+6 °C”. Also, on LACV EndoN [2], half-maximal inhibition (IC50) required 340 ± 20 nM and the “fold greater inhibition efficiency than DPBA” value is given as “threefold”. At LACV EndoN [3], the affinity, expressed as Kd, was 19 ± 6 nM and the “fold better affinity than DPBA” value is 68 fold.

With `O=C(O)C(=O)CC(=O)c1ccccc1` [DPBA, 2,4-Dioxo-4-phenylbutanoic acid], the Kd is 4500 nM at FLUV PA-Nter, 1350 ± 250 nM on LACV EndoN [3] and 5400 nM at LCMV EndoN. The midpoint of inhibition against LACV EndoN [2], the IC50, lay at 990 ± 60 nM.

Regarding `O=C(O)/C(O)=C/C(=O)C1(Cc2ccc(Cl)cc2)CCN(Cc2ccccc2)CC1` [L-742,001, (Z)-4-{1-benzyl-4-[(4-chlorophenyl)methyl]-piperidin-4-yl}-2-hydroxy-4-oxobut-2-enoic acid], the “greater stabilization compared with DPBA” value on LACV EndoN [1] was “+4 °C”. Further, at LACV EndoN [2], half-maximal inhibition (IC50) required 650 ± 30 nM and the “fold greater inhibition efficiency than DPBA” value amounted to 1.5 fold. Also, on LACV EndoN [3], the Kd is 600 nM and 614 nM; the “fold better affinity than DPBA” value is “twofold”.

The record behind these values is paper PMC11067750, “Biophysical and structural study of La Crosse virus endonuclease inhibition for the development of new antiviral options” (IUCrJ, 2024).
